# Measured values published in patent US11564912B2, “Methods for treating irritable bowel syndrome (IBS)” (Salix Pharmaceuticals, Inc., priority 2008, dated 2023).
# “And” between values parts separate entries of the source, which are not always exact repeats. Equal values may be shown once.
# Assays:
# subjects with dIBS = test: Study of rifaximin BID in subjects with dIBS: adequate relief of IBS symptoms and bloating; type: in vivo, human; settings: for Percentage of Subjects with Adequate Relief of Bloating Symptom / Percentage of Subjects with Adequate Relief of IBS Symptoms: RFX 550 mg BID 14 days, N = 191, ITT, at least two of the final three weeks of treatment phase (Weeks 1 to 4); for Adequate Relief of Bloating, Post Treatment: Failures / Adequate Relief of Bloating, Post Treatment: Success / Adequate Relief of Bloating, Post Treatment: Failure: RFX 550 2 w (N = 54); for Patients with adequate relief of bloating / Patients with adequate relief of global IBS symptoms: rifaximin 550 mg twice daily 14 days
# Description: This example relates to a study of rifaximin in subjects with dIBS. […] There were two measures of efficacy assessed. Subjects were questioned on the relief of overall IBS symptoms and bloating. […] The analyses defined success as a “yes” response to questions regarding adequate relief.
# All subpopulations in the study responded to therapy. Baseline severity was determined using 7-point Lickert scales during screening for Abdominal Pain/Discomfort and Bloating, and the number, type (normal, hard, loose) and urgency of bowel movements.
# Duration of effect was assessed in a follow-up period. Subjects that responded in the 4 week treatment period were followed for an additional 3 months.
# The effect of treatment on the percentage of subjects who reported adequate relief of IBS and bloating symptoms for at least two of the final three weeks during the treatment phase (Weeks 1 to 4) is shown in Tables 3-5 and FIGS. 4-6 below.
# Two measures of efficacy were assessed independently. The first was the proportion of subjects who provided a ‘yes’ response to the weekly SGA question: “In the past 7 days, have you had adequate relief of your IBS symptoms? (yes/no)”. The second endpoint was the proportion of subjects who provide a ‘yes’ response to the weekly individual symptom question: “In the past 7 days, have you had adequate relief of your symptom of bloating? (yes/no)”. Durability was based on the proportion of subjects that had adequate relief over the entire treatment phase.
# It is reported herein that the severity of baseline symptoms of abdominal pain and bloating influenced the response to rifaximin treatment. The co-primary endpoints in this analysis assessed weekly yes/no responses to questions regarding adequate relief of global IBS symptoms and IBS-associated bloating. Severity of baseline IBS symptoms was evaluated as a potential confounder of clinical response and was categorized as mild/moderate or severe based on a mean score of ≤4 vs. >4 (on a 7-point scale) for bloating and abdominal pain.
# The Weekly yes/no responses to questions regarding adequate relief of global IBS symptoms and IBS-associated bloating were assessed. Clinical response was defined as adequate relief for 2 of the final 3 treatment weeks (wk 2, 3, or 4). Severity of baseline IBS symptoms was evaluated as a potential confounder of clinical response and was categorized as mild/moderate or severe based on a mean score of ≤4 versus >4 (on a 7-point scale (0=not bothersome; 6=very bothersome)) for bloating and abdominal pain.
# [1] = test system: species of Staphylococcus, Streptococcus, Enterococcus, and Enterobacteriaceae; settings: cited from earlier work
# [2] = RFX 550 mg BID vs placebo, ITT, listed as RFX
# [3] = RFX 550 mg BID, responders followed through week 16
# [4] = patients with mild/moderate abdominal pain at baseline
# [5] = patients with mild/moderate bloating at baseline
substance,measurement,setting,value
"(2S,16Z,18E,20S,21S,22R, 23R,24R,25S,26S,27S,28E)-5,6,21,23,25 Pentahydroxy-27-methoxy -2,4,11,16,20,22,24,26-octamethyl-2,7-(epoxypentadeca-(1,11,13)trienimino)benzofuro (4,5-e) pyrido(1,2,-a) benzimidazole-1,15(2H)-dione,25-acetate [Rifaximin]",Adequate Relief of IBS Symptoms at the End of the Treatment Phase: Success,"subjects with dIBS; Male, RFX 550 2 w (N = 191)",29 (53.7%) n (%)
same,"odds ratio, Adequate Relief of Bloating at the End of the Treatment Phase","subjects with dIBS; Male, RFX 550 2 w vs. PBO","Comparison of RFX 550 2 w vs. PBO p-value: 0.0802, odds ratio: 2.148 (0.912, 5.057)"
same,"odds ratio, Adequate Relief of IBS Symptoms at the End of the Treatment Phase","subjects with dIBS; Male, RFX 550 2 w vs. PBO","Comparison of RFX 550 2 w vs. PBO p-value: 0.0326, odds ratio: 2.511 (1.079, 5.842)"
same,Adequate Relief of Bloating at the End of the Treatment Phase: Failure,"subjects with dIBS; Male, RFX 550 4 w (N = 98)",16 (72.7%) n (%)
same,Adequate Relief of Bloating at the End of the Treatment Phase: Success,"subjects with dIBS; Male, RFX 550 4 w (N = 98)",6 (27.3%) n (%)
same,Adequate Relief of IBS Symptoms at the End of the Treatment Phase: Failure,"subjects with dIBS; Male, RFX 550 4 w (N = 98)",15 (68.2%) n (%)
same,Adequate Relief of IBS Symptoms at the End of the Treatment Phase: Success,"subjects with dIBS; Male, RFX 550 4 w (N = 98)",7 (31.8%) n (%)
same,Percentage of Subjects with Adequate Relief of Bloating Symptom,subjects with dIBS,46%
same,Percentage of Subjects with Adequate Relief of IBS Symptoms,subjects with dIBS,52%
same,Percentage of Subjects with Adequate Relief of Bloating Symptom,subjects with dIBS; listed as RFX,46.1%
same,Percentage of Subjects with Adequate Relief of IBS Symptoms,subjects with dIBS; listed as RFX,52.4%
same,"Odds Ratio Estimate, Number of Weeks with Adequate Relief of Bloating Symptoms","subjects with dIBS; RFX 550 mg BID vs placebo, ITT",1.57
same,"Odds Ratio Estimate, Number of Weeks with Adequate Relief of IBS Symptoms","subjects with dIBS; RFX 550 mg BID vs placebo, ITT",1.54
same,"Odds Ratio Estimate, Adequate Relief of Bloating Symptom",subjects with dIBS; [2],1.6 and 1.58
same,"Odds Ratio Estimate, Adequate Relief of IBS Symptoms",subjects with dIBS; [2],1.6
same,Adequate relief of IBS symptoms during post-treatment follow-up,subjects with dIBS; [3],62.3%
same,Adequate relief of the symptom of bloating during post-treatment follow-up,subjects with dIBS; [3],59.3%
same,"Adequate Relief of Bloating, Post Treatment: Failures",subjects with dIBS; Week 6,5 (9.3%) n (%)
same,"Adequate Relief of Bloating, Post Treatment: Success",subjects with dIBS; Week 6,49 (90.7%) n (%)
same,"odds ratio, Adequate Relief of Bloating, Post Treatment","subjects with dIBS; Week 6, RFX 550 2 w vs. PBO","Comparison of RFX 550 2 w vs. PBO p-value: 0.1303, odds ratio: 3.840"
same,"Adequate Relief of Bloating, Post Treatment: Failures",subjects with dIBS; Week 7,9 (16.7%) n (%)
same,"Adequate Relief of Bloating, Post Treatment: Success",subjects with dIBS; Week 7,45 (83.3%) n (%)
same,"odds ratio, Adequate Relief of Bloating, Post Treatment","subjects with dIBS; Week 7, RFX 550 2 w vs. PBO","Comparison of RFX 550 2 w vs. PBO p-value: 0.1311, odds ratio: 2.931"
same,"Adequate Relief of Bloating, Post Treatment: Failures",subjects with dIBS; Week 8,7 (13.0%) n (%)
same,"Adequate Relief of Bloating, Post Treatment: Success",subjects with dIBS; Week 8,47 (87.0%) n (%)
same,"odds ratio, Adequate Relief of Bloating, Post Treatment","subjects with dIBS; Week 8, RFX 550 2 w vs. PBO","Comparison of RFX 550 2 w vs. PBO p-value: 0.2858, odds ratio: 2.107"
same,"Adequate Relief of Bloating, Post Treatment: Failures",subjects with dIBS; Week 9,15 (27.8%) n (%)
same,"Adequate Relief of Bloating, Post Treatment: Success",subjects with dIBS; Week 9,39 (72.2%) n (%)
same,"odds ratio, Adequate Relief of Bloating, Post Treatment","subjects with dIBS; Week 9, RFX 550 2 w vs. PBO","Comparison of RFX 550 2 w vs. PBO p-value: 0.0814, odds ratio: 2.737"
same,"Adequate Relief of Bloating, Post Treatment: Failures",subjects with dIBS; Week 10,15 (27.8%) n (%)
same,"Adequate Relief of Bloating, Post Treatment: Success",subjects with dIBS; Week 10,39 (72.2%) n (%)
same,"odds ratio, Adequate Relief of Bloating, Post Treatment","subjects with dIBS; Week 10, RFX 550 2 w vs. PBO","Comparison of RFX 550 2 w vs. PBO p-value: 0.0217, odds ratio: 3.828"
same,"Adequate Relief of Bloating, Post Treatment: Failures",subjects with dIBS; Week 11,19 (35.2%) n (%)
same,"Adequate Relief of Bloating, Post Treatment: Success",subjects with dIBS; Week 11,35 (64.8%) n (%)
same,"odds ratio, Adequate Relief of Bloating, Post Treatment","subjects with dIBS; Week 11, RFX 550 2 w vs. PBO","Comparison of RFX 550 2 w vs. PBO p-value: 0.0398, odds ratio: 3.115"
same,"Adequate Relief of Bloating, Post Treatment: Failure",subjects with dIBS; Week 12,18 (33.3%) n (%)
same,"Adequate Relief of Bloating, Post Treatment: Success",subjects with dIBS; Week 12,36 (66.7%) n (%)
same,"odds ratio, Adequate Relief of Bloating, Post Treatment","subjects with dIBS; Week 12, RFX 550 2 w vs. PBO","Comparison of RFX 550 2 w vs. PBO p-value: 0.0596, odds ratio: 2.891"
same,"Adequate Relief of Bloating, Post Treatment: Failure",subjects with dIBS; Week 13,21 (38.9%) n (%)
same,"Adequate Relief of Bloating, Post Treatment: Success",subjects with dIBS; Week 13,33 (61.1%) n (%)
same,"odds ratio, Adequate Relief of Bloating, Post Treatment","subjects with dIBS; Week 13, RFX 550 2 w vs. PBO","Comparison of RFX 550 2 w vs. PBO p-value: 0.0142, odds ratio: 4.187"
same,"Adequate Relief of Bloating, Post Treatment: Failure",subjects with dIBS; Week 14,20 (37.0%) n (%)
same,"Adequate Relief of Bloating, Post Treatment: Success",subjects with dIBS; Week 14,34 (63.0%) n (%)
same,"odds ratio, Adequate Relief of Bloating, Post Treatment","subjects with dIBS; Week 14, RFX 550 2 w vs. PBO","Comparison of RFX 550 2 w vs. PBO p-value: 0.0121, odds ratio: 4.230"
same,"Adequate Relief of Bloating, Post Treatment: Failure",subjects with dIBS; Week 15,23 (42.6%) n (%)
same,"Adequate Relief of Bloating, Post Treatment: Success",subjects with dIBS; Week 15,31 (57.4%) n (%)
same,"odds ratio, Adequate Relief of Bloating, Post Treatment","subjects with dIBS; Week 15, RFX 550 2 w vs. PBO","Comparison of RFX 550 2 w vs. PBO p-value: 0.0391, odds ratio: 3.323"
same,"Adequate Relief of Bloating, Post Treatment: Failure",subjects with dIBS; Week 16,22 (40.7%) n (%)
same,"Adequate Relief of Bloating, Post Treatment: Success",subjects with dIBS; Week 16,32 (59.3%) n (%)
same,"odds ratio, Adequate Relief of Bloating, Post Treatment","subjects with dIBS; Week 16, RFX 550 2 w vs. PBO","Comparison of RFX 550 2 w vs. PBO p-value: 0.0212, odds ratio: 3.700"
same,Treatment effect (Bloating),subjects with dIBS; dIBS Type: aIBS,"31.4%*, 31.4%"
same,Treatment effect (IBS Sx),subjects with dIBS; dIBS Type: aIBS,"31.4%*, 31.4%"
same,Treatment effect (Bloating),subjects with dIBS; dIBS Type: dIBS only,4.5%
same,Treatment effect (IBS Sx),subjects with dIBS; dIBS Type: dIBS only,6.3%
same,Patients with adequate relief of bloating,subjects with dIBS; [4],44%
same,Patients with adequate relief of global IBS symptoms,subjects with dIBS; [4],50%
same,Patients with adequate relief of bloating,subjects with dIBS; [5],47%
same,Patients with adequate relief of global IBS symptoms,subjects with dIBS; [5],56%
same,In vitro antibacterial activity,[1],active
